Measured values published in patent US4487924A, “2'-N-β-Lysyl) aminoglycosides” (Kowa Company, Ltd., priority 1982, dated 1984).
Like-named read-outs stand apart in the source and are kept apart here.

Experiments:
Assay in all cases: Antibiotic activity (MIC), Table 1
Format in all cases: cell-based
S. aureus 209P JC-1 = tested on: S. aureus 209P JC-1
P. inconstans 93 = tested on: P. inconstans 93
[1] = tested on: K. pneumoniae 4687 (AAD(2"))
S. marcescens NHL = tested on: S. marcescens NHL
P. cepacia 11D 1340 = tested on: P. cepacia 11D 1340
[2] = tested on: P. aeruginosa 99 (AAC(3)-I)
E. coli NIHJ JC-2 = tested on: E. coli NIHJ JC-2
P. vulgaris IID 874 = tested on: P. vulgaris IID 874
S. faecalis Imanari = tested on: S. faecalis Imanari
E. coli ML 1410 = tested on: E. coli ML 1410
B. subtilis ATCC 6633 = tested on: B. subtilis ATCC 6633
E. cloacae IID 977 = tested on: E. cloacae IID 977
[3] = tested on: P. aerugionosa TK-157 (APH(3')-II)
P. putida IID 5121 = tested on: P. putida IID 5121
E. coli R176 (AAC(3)-II) = tested on: E. coli R176 (AAC(3)-II)
E. coli JR 88 (AAC(3)-I) = tested on: E. coli JR 88 (AAC(3)-I)
[4] = tested on: P. aeruginosa TI 13 (APH(3')-I)
P. aeruginosa NCTC 10490 = tested on: P. aeruginosa NCTC 10490
K. pneumoniae PCI 602 = tested on: K. pneumoniae PCI 602
[5] = tested on: P. aeruginosa RST-1 (AAC(3)-III)
P. maltophilia IID 1275 = tested on: P. maltophilia IID 1275
[6] = tested on: P. aeruginosa GN315 (AAC(6')-IV)
[7] = tested on: P. inconstans GN1554 (AAC(2'))
[8] = tested on: E. coli ML 1410 R102 (AAD(2"))
[9] = tested on: E. coli ML 1410 R82 (AAD(3"))
[10] = tested on: E. coli ML 1410 R83 (APH(3')-II)
[11] = tested on: E. coli ML 1410 R81 (APH(3')-I)
[12] = P. aeruginosa GN315 (AAC(6')-IV)
[13] = Staphylococcus aureus, 209P, read-out: MIC
[14] = Klebsiella pneumoniae, read-out: MIC
[15] = Serratia marcescens, read-out: MIC
[16] = Burkholderia cepacia, 11D1340, read-out: MIC
[17] = Pseudomonas aeruginosa, read-out: MIC
[18] = Escherichia coli, NIHJJC2, E. coli NIHJ JC-2, read-out: MIC
[19] = Enterococcus faecalis, read-out: MIC
[20] = Escherichia coli, ML1410, E. coli ML 1410, read-out: MIC
[21] = Bacillus subtilis, ATCC6633, B. subtilis ATCC 6633, read-out: MIC
[22] = Enterobacter cloacae, IID977, E. cloacae IID 977, read-out: MIC
[23] = Pseudomonas putida, IID5121, P. putida IID 5121, read-out: MIC
[24] = Escherichia coli, read-out: MIC
[25] = Pseudomonas aeruginosa, NCTC10490, P. aeruginosa NCTC 10490, read-out: MIC
[26] = Klebsiella pneumoniae, PCI602, K. pneumoniae PCI 602, read-out: MIC
[27] = Stenotrophomonas maltophilia, IID1275, P. maltophilia IID 1275, read-out: MIC
[28] = Pseudomonas aeruginosa, GN315, P. aeruginosa GN315 (AAC(6')-IV), read-out: MIC
[29] = Providencia alcalifaciens, GN1554, P. inconstans GN1554 (AAC(2')), read-out: MIC
[30] = Providencia alcalifaciens, 93, P. inconstans 93, read-out: MIC
[31] = Proteus vulgaris, IID874, P. vulgaris IID 874, read-out: MIC

Measured: MIC

CNC1C(O)CC(N)C(OC2OC(C(C)N)CCC2NC(=O)C[C@@H](N)CCCN)C1O (stereo partly drawn) [2'-N-β-Lysyl 5-de-O-Me KA-6606II, 2'-N-(L-β-lysyl)-5-de-O-methyl-KA-6606II]
1.56 µg/mL: P. inconstans 93; P. inconstans 93 | P. maltophilia IID 1275; P. maltophilia IID 1275 | [7]; P. inconstans GN1554 (AAC(2'))
12.5 µg/mL: [1] | E. cloacae IID 977; E. cloacae IID 977 | E. coli JR 88 (AAC(3)-I)
3.13 µg/mL: S. marcescens NHL | E. coli NIHJ JC-2; E. coli NIHJ JC-2 | S. faecalis Imanari | B. subtilis ATCC 6633; B. subtilis ATCC 6633
100 µg/mL: [5]
25 µg/mL: P. vulgaris IID 874; P. vulgaris IID 874 | P. putida IID 5121; P. putida IID 5121 | P. aeruginosa NCTC 10490; P. aeruginosa NCTC 10490
50 µg/mL: [3] | [4]
0.78 µg/mL: S. aureus 209P JC-1 | K. pneumoniae PCI 602; K. pneumoniae PCI 602
6.25 µg/mL: E. coli ML 1410; E. coli ML 1410 | E. coli R176 (AAC(3)-II)
> 100 µg/mL: P. cepacia 11D 1340 | [2] | [6]; [12]

CNC1C(O)CC(N)C(OC2OC(C(C)N)CCC2NC(=O)C[C@@H](N)CCCN)C1O (stereo partly drawn) [2'-N-β-Lysyl 5-de-O-Me KA-6606VIII, 2'-N-(L-β-lysyl)-5-de-O-methyl-KA-6606VIII]
6.25 µg/mL: S. marcescens NHL; [15] | E. coli NIHJ JC-2; [18] | E. coli ML 1410; [20] | E. coli R176 (AAC(3)-II); [24] | E. coli JR 88 (AAC(3)-I); [24]
0.78 µg/mL: S. aureus 209P JC-1; [13] | K. pneumoniae PCI 602; [26]
1.56 µg/mL: P. maltophilia IID 1275; [27] | [7]; [29]
> 100 µg/mL: P. cepacia 11D 1340; [16] | [2]; [17] | [5]; [17] | [6]; [28]
100 µg/mL: P. vulgaris IID 874; P. vulgaris IID 874
12.5 µg/mL: [1]; [14] | P. putida IID 5121; [23]
50 µg/mL: [3]; read-out: MIC | [4]; Pseudomonas aeruginosa | P. aeruginosa NCTC 10490; [25]
3.13 µg/mL: P. inconstans 93; P. inconstans 93 | S. faecalis Imanari; [19] | B. subtilis ATCC 6633; [21]
25 µg/mL: E. cloacae IID 977; [22]

CNC1C(OC)CC(N)C(OC2OC(C(C)N)CCC2NC(=O)C[C@@H](N)CCCN)C1O (stereo partly drawn) [2'-N-β-Lysyl KA-6606VIII, 2'-N-(L-β-lysyl)-KA-6606VIII]
> 100 µg/mL: P. cepacia 11D 1340; [16]
0.39 µg/mL: S. aureus 209P JC-1; [13] | P. inconstans 93; [30] | [8]; Escherichia coli | [9]; Escherichia coli
25 µg/mL: [3]; read-out: MIC | [4]; Pseudomonas aeruginosa | [6]; [28]
100 µg/mL: [5]; [17]
3.13 µg/mL: B. subtilis ATCC 6633; [21] | E. cloacae IID 977; [22] | P. putida IID 5121; [23]
50 µg/mL: [2]; [17]
1.56 µg/mL: E. coli NIHJ JC-2; [18] | S. faecalis Imanari; [19] | P. maltophilia IID 1275; [27]
6.25 µg/mL: P. aeruginosa NCTC 10490; [25]
0.78 µg/mL: [1]; [14] | E. coli ML 1410; [20] | E. coli R176 (AAC(3)-II); [24] | E. coli JR 88 (AAC(3)-I); [24] | K. pneumoniae PCI 602; [26]
0.2 µg/mL: S. marcescens NHL; [15] | [7]; [29]
12.5 µg/mL: P. vulgaris IID 874; [31]

CNCC1CCC(NC(=O)C[C@@H](N)CCCN)C(OC2C(N)CC(OC)C(NC)C2O)O1 (stereo partly drawn) [2'-N-β-Lysyl KA-7038VI, 2'-N-(L-β-lysyl)-KA-7038VI]
> 100 µg/mL: P. cepacia 11D 1340; [16] | [2]; [17] | [5]; [17]
1.56 µg/mL: E. coli NIHJ JC-2; [18] | S. faecalis Imanari; [19] | E. coli ML 1410; [20] | E. coli R176 (AAC(3)-II); [24] | P. maltophilia IID 1275; [27]
12.5 µg/mL: P. putida IID 5121; [23] | P. aeruginosa NCTC 10490; [25]
6.25 µg/mL: E. cloacae IID 977; [22]
3.13 µg/mL: [1]; [14] | B. subtilis ATCC 6633; [21] | E. coli JR 88 (AAC(3)-I); [24]
0.78 µg/mL: S. aureus 209P JC-1; [13] | P. inconstans 93; [30] | S. marcescens NHL; [15] | K. pneumoniae PCI 602; [26] | [7]; [29]
25 µg/mL: P. vulgaris IID 874; [31] | [3]; read-out: MIC | [4]; Pseudomonas aeruginosa
100 µg/mL: [6]; [28]

CNC1C(OC)CC(N)C(OC2OC(C(C)N)CCC2N)C1O (stereo not shown) [KA-6606II, reference compound]
> 100 µg/mL: P. inconstans 93; P. inconstans 93 | [1] | P. cepacia 11D 1340 | [2] | E. coli ML 1410; E. coli ML 1410 | E. cloacae IID 977; E. cloacae IID 977 | [3] | P. putida IID 5121; P. putida IID 5121 | E. coli R176 (AAC(3)-II) | E. coli JR 88 (AAC(3)-I) | [10] | [4] | P. aeruginosa NCTC 10490; P. aeruginosa NCTC 10490 | [11] | [8] | K. pneumoniae PCI 602; K. pneumoniae PCI 602 | [5] | [9] | P. maltophilia IID 1275; P. maltophilia IID 1275 | [6]; [12] | [7]; P. inconstans GN1554 (AAC(2'))
100 µg/mL: S. marcescens NHL | P. vulgaris IID 874; P. vulgaris IID 874 | S. faecalis Imanari
25 µg/mL: S. aureus 209P JC-1
50 µg/mL: E. coli NIHJ JC-2; E. coli NIHJ JC-2
6.25 µg/mL: B. subtilis ATCC 6633; B. subtilis ATCC 6633

CNC1C(OC)CC(N)C(OC2OC(C(C)N)CCC2N)C1O (stereo not shown) [KA-6606VIII, reference compound]
1.56 µg/mL: P. inconstans 93; P. inconstans 93 | S. marcescens NHL | P. maltophilia IID 1275; P. maltophilia IID 1275 | [7]; P. inconstans GN1554 (AAC(2'))
0.78 µg/mL: S. aureus 209P JC-1 | [8] | K. pneumoniae PCI 602; K. pneumoniae PCI 602
> 100 µg/mL: P. cepacia 11D 1340; [16] | [2]; [17]
3.13 µg/mL: E. coli NIHJ JC-2; E. coli NIHJ JC-2 | S. faecalis Imanari | E. coli ML 1410; E. coli ML 1410 | B. subtilis ATCC 6633; [21] | E. coli R176 (AAC(3)-II)
12.5 µg/mL: P. vulgaris IID 874; P. vulgaris IID 874 | E. cloacae IID 977; E. cloacae IID 977 | P. putida IID 5121; P. putida IID 5121 | P. aeruginosa NCTC 10490; P. aeruginosa NCTC 10490
25 µg/mL: [3] | [4]
50 µg/mL: E. coli JR 88 (AAC(3)-I); [24]
100 µg/mL: [5]; [17] | [6]; [28]
6.25 µg/mL: [1]

CNCC1CCC(N)C(OC2C(N)CC(OC)C(NC)C2O)O1 (stereo not shown) [KA-7038VI, reference compound]
50 µg/mL: E. coli NIHJ JC-2; [18] | P. vulgaris IID 874; [31]
6.25 µg/mL: B. subtilis ATCC 6633; [21]
25 µg/mL: S. aureus 209P JC-1; [13]
> 100 µg/mL: P. inconstans 93; [30] | [1]; [14] | S. marcescens NHL; [15] | P. cepacia 11D 1340; [16] | [2]; [17] | E. coli ML 1410; [20] | E. cloacae IID 977; [22] | [3]; read-out: MIC | P. putida IID 5121; [23] | E. coli R176 (AAC(3)-II); [24] | E. coli JR 88 (AAC(3)-I); [24] | [10]; Escherichia coli | P. aeruginosa NCTC 10490; [25] | [11]; Escherichia coli | [5]; [17] | [9]; Escherichia coli | P. maltophilia IID 1275; [27] | [6]; [28] | [7]; [29]
100 µg/mL: S. faecalis Imanari; [19] | [4]; Pseudomonas aeruginosa | [8]; Escherichia coli | K. pneumoniae PCI 602; [26]
